According to patent US20120294886A1, “PEPTIDE CONJUGATES FOR SUPPRESSING AN IMMUNE RESPONSE, METHODS OF MAKING AND USES THEREFOR” (The University of Queensland, priority 2011, published 2012):

What was measured:
[1] = tested on: endosomes; assay: Colocalisation of peptide with endosomes in macrophages, confocal microscopy (Example 3); assay type: cell-based, mouse; details: FIG. 3
Description: (§1) For confocal microscopy, macrophages were isolated from normal 8-12-wk old female SJL/J mice peritoneal cell suspensions by adhesion to glass coverslips. The macrophages were then incubated with 100 μM peptide for between 1 min and 24 h at 37° C., the peptide being one of:
(§2) After incubation, cells were fixed with 4% formaldehyde in PBS for 15 min at room temperature and permeabilised with 0.05% digitonin in PBS for 5 min at room temperature or 0.2% Triton X-100 in PBS for 20 min at room temperature.
(§3) The cells were then incubated with murine antibodies against endosomes, lysosomes, endoplasmic reticulum, or MHC class I or II molecules for 1-3 hours at 37° C. After three washes in PBS, cells were incubated with streptavidin-Alexa 488 (1/400 dilution in PBS) or streptavidin-Cy3 (1/450 dilution in PBS) (both from Molecular Probes) and Texas Red-labeled rabbit anti-mouse IgG or IgM for 30 min in the dark at room temperature. After washing with PBS, coverslips were mounted in Aquapolymount medium. Immunofluorescence staining was monitored with a laser scanning microscope (LSM 510; Carl Zeiss Laboratories) equipped with a Plan-Apochromat 63× oil DIC immersion lens (numerical aperture 1.4). […] Quantification of colocalisation was performed on cells from 10 to 12 fields (at least 100 cells) with the colocalisation module of the Zeiss LSM Image Browser software.

[2] = tested on: lysosomes; assay: Colocalisation of peptide with lysosomes in macrophages, confocal microscopy (Example 3); assay type: cell-based, mouse; details: FIG. 3
Description: as §1, §2, §3

[3] = tested on: endoplasmic reticulum (ER); assay: Colocalisation of peptide with endoplasmic reticulum in macrophages, confocal microscopy (Example 3); assay type: cell-based, mouse; details: 30 or 60 minutes incubation, FIG. 4
Description: as §1, §2, §3

[4] = tested on: MHC class I molecules; assay: Colocalisation of peptide with MHC class I in macrophages, confocal microscopy (Example 3); assay type: cell-based, mouse; details: FIG. 5
Description: as §1, §2, §3

[5] = tested on: MHC class II molecules; assay: Colocalisation of peptide with MHC class II in macrophages, confocal microscopy (Example 3); assay type: cell-based, mouse; details: FIG. 5
Description: as §1, §2, §3

[6] = tested on: SJL/J mouse; assay: EAE induction by F188, co-immunisation with A188 or S-palm A188 (Example 5); assay type: in vivo
Description: (§4) One mg per mL of F188 peptide, either alone or together with A188 peptide or S-palm A188 peptide at different molar ratios, was emulsified in an equal volume of complete Freund's adjuvant containing an additional 4 mg/ml Mycobacterium tuberculosis H37Ra. 200 μl of the emulsion (i.e. 100 μg F188) was then injected subcutaneously in a single site on the back of each SJL/J mouse. Each mouse also received 300 ng pertussis toxin intravenously on the same day as the peptide emulsion and then 3 days later.
(§5) The mice were inspected and weighed daily and scored for disease using a 5 point severity scale: 0=no disease; 1=decreased tail tone; 2=no tail tone; 3=hind limb weakness; 4=hind limb paralysis; 5=moribund.

[7] = tested on: SJL/J mice; assay: Therapeutic treatment of established S-palm-PLP178-191-induced EAE (Example 7); assay type: in vivo, mouse; details: 100 μL of 1 mg/mL in PBS s.c. at score 2.0 or 2.5, followed for 7 days, versus PBS, FIG. 6
Description: SJL/J mice were injected subcutaneously with 100 μg S-palm-F188 (S-palm-PLP178-191), i.e. 100 μl of a 1 mg/ml solution emulsified in an equal volume (i.e. 100 μl Complete Freund's Adjuvant containing an extra 4 mg/mL Mycobacterium tuberculosis H37Ra. Each mouse also received 300 ng pertussis toxin intravenously on the same day as the peptide emulsion and then 3 days later.
The mice were then inspected and scored for disease using a 5 point severity scale: 0=no disease; 1=decreased tail tone; 2=no tail tone; 3=hind limb weakness; 4=hind limb paralysis; 5=moribund.
When the mice reached a score between 2.0 or 2.5, each mouse was injected subcutaneously with 100 μL PBS (n=6), 100 μL of 1 mg/mL A188 in PBS (n=6), or 100 μL of 1 mg/mL S-palm-A188 in PBS (n=7).
Mice were then followed for 7 days, and scored each day.

[8] = tested on: SJL/J mice; assay: Induction of EAE by immunisation with peptide in complete Freund's adjuvant (Example 2); assay type: in vivo, mouse; details: for Incidence / Day of Onset: EAE; for Incidence / Score / Day of Onset: mice immunised with the peptide in CFA; for Incidence: followed for 6 weeks; for Score: clinical score of EAE; for Duration: duration of the first episode of disease
Description: In examples 2 and 4-8, PLP encephalitogenic epitopes were injected into SJL/J mice to induce EAE, so the mice could be used as an animal model for MS. Such a model has been used in numerous studies, including where preventative or treatment methods for MS are being investigated. The study described in Hofstetter et al., 2007, for example, describes the induction of EAE in SJL mice at pages 1373-1374.
Mice were immunised with the above non-palmitoylated, S-palmitoylated or N-palmitoylated peptides in complete Freund's adjuvant to induce EAE.
(1) Mice were followed for 6 weeks to determine the induction of EAE.

[9] = tested on: lymph node cells (LNC); assay: CD4/CD8 ratio of activated LNC by flow cytometry (Example 2); assay type: cell-based, mouse; details: activated LNC from immunised mice, 4 per group
Description: Lymph nodes from a different group of mice immunised in the same manner were removed 10 days after injection of the peptides and single cell suspensions of lymph node cells (LNC) were prepared.
(3) Other LNC were incubated with antibodies against CD4 or CD8, and the ratio of CD4 to CD8 was determined using flow cytometric techniques. LNC were centrifuged through a Ficoll gradient and washed with PBS containing 1% FCS and 0.01% sodium azide (wash buffer). Aliquots of 1 million cells were incubated with antibodies specific for CD4 (clone RM4-5; rat IgG2a) or CD8a (clone 53-6.7; rat IgG2a) together with an antibody specific for the TCR β-chain (H57-597; hamster IgG) for 30 min at 4° C. in the dark, followed by FITC-conjugate anti-rat κ-chain or PE-conjugated anti-hamster IgG for 30 min at 4° C. in the dark. Isotype-matched primary antibodies were used as controls. All antibodies were purchased from PharMingen (San Diego, Calif.) and were used at 1 μg/ml dilution in wash buffer. After washing, cells were resuspended in wash buffer and analysed using a FACSCalibur flow cytometer (Becton Dickinson, Franklin Lakes, N.J.).

[10] = tested on: SJL/J mouse; assay: EAE induction by W144, co-immunisation with Q144 or S-palm Q144 (Example 4); assay type: in vivo
Description: as §4, with “W144” for “F188”, “Q144” for “A188”, “W144)” for “F188)”
as §5

[11] = EAE, 100 μg W144 alone in CFA s.c.

Substance	Colocalisation with endosomes [1]	Colocalisation with lysosomes [2]	Colocalisation with endoplasmic reticulum (ER) [3]	Colocalisation with MHC class I [4]	Incidence [8]	Score [8]	CD4/CD8 Ratio (mean ± SEM) [9]	Day of Onset [8]	Duration [8]	also measured
PLP139-151 Cys140-Palm Lys150-Biot (S-palm) (HCLGKWLGHPDKF) [S-palm peptide]	colocalised rapidly and strongly with endosomes	colocalised strongly with lysosomes	but not S-palm peptide colocalised strongly	only a small percentage						Colocalisation with MHC class II [5]: colocalised strongly with MHC class II
H2N-NTWTTCQSIAAPSK-CO2H (H-NTWTTCQSIAAPSK-OH) [A188]										Protective effect on EAE (in words) ([6]; injected at a dose 5 times greater than the encephalitogenic peptide F188): protective; Mean EAE score after treatment [7]: intermediate between the control group and the S-palm-A188-treated group
H2N-KTTICGKGLSATVT-CO2H (H-KTTICGKGLSATVT-OH) [PLP104-117]					0/4	0	2.31 ± 0.07			
H2N-NTWTTCQSIAFPSK-CO2H (H-NTWTTCQSIAFPSK-OH) [PLP178-191]					5/5	2.7 ± 0.9		13.0 ± 1.5 days	5.8 ± 0.4	Mean severity ([6]; 5 point scale, F188 alone): 2.8 ± 0.3; Incidence ([6]; EAE, 100 μg F188 alone in CFA s.c.): 8/8; Mean day of onset ([6]; EAE, F188 alone): 11.3 ± 0.5 days
PLP139-151 His139-Palm Lys150-Biot (N-palm) (HCLGKWLGHPDKF) [N-palm peptide]	did not colocalise strongly with endosomes in most cells	did not colocalise strongly with lysosomes in most cells	colocalised strongly with endoplasmic reticulum (ER)	colocalised strongly with MHC class I						
H2N-HCLGKWLGHPDKF-CO2H (H-HCLGKWLGHPDKF-OH) [PLP139-151]					4/4	3.0 ± 0.7	2.18 ± 0.19	11.0 ± 1.4 days	5.8 ± 1.8	Incidence [10, 11]: 4/4; Mean day of onset [10, 11]: 11.5 days; Mean severity ([10]; mean maximum severity of mice that developed EAE, 5 point scale, W144 alone): 4.3
